Values joined by “and” are separate entries in the source; they are usually repeats but may differ in a detail not shown here. Equal entries are not always repeated. Marks after values point to notes of the source that are not given here. One block for each molecule: values may come before it.
Experiments:
[1] = molecular target: T1, human 5-HT1b (h5-HT1b) receptors (Homo sapiens, UniProt P28222); test: SPA-based 35S-GTPγS binding assay, human 5-HT1b; format: biochemical; conditions: for EC50: ten concentrations in duplicate
T1 construct: expressed in transfected cells

5-HT1b receptor [2] = molecular target: T2, 5-HT1b receptor (Homo sapiens, UniProt P28222); test: Radioligand binding competition assay with 3H-5-CT; conditions: for Ki: 3H-5-CT, derived from IC50 using Cheng-Prusoff equation
Excerpt: The Ki values were derived from IC50 values using Cheng-Prusoff equation.

[3] = CSF exposure in c57/B16 mice after i.p. dosing
[4] = molecular target: T3, rat recombinant 5-HT1b (r5-HT1b) receptors (Rattus norvegicus, UniProt P28564); test: SPA-based 35S-GTPγS binding assay, rat 5-HT1b; format: biochemical; conditions: for EC50: ten concentrations in duplicate
T3 construct: expressed in transfected cells

in vivo = conditions: male, CD-1, mouse, ip
[5] = test system: VPA-exposed male c57/B16 mice; test: 3-chamber Social Interaction Assay in valproic acid (VPA)-induced mouse model of ASD; format: in vivo; conditions: adult male c57/B16 mice previously exposed to VPA; 10 mg/kg i.p. 15 min before test; vs vehicle
Procedure: Specifically, sociability was evaluated in male c57/B16 mice that were previously exposed to valproic acid (VPA) via i.p. delivery of 500 mg/kg to their pregnant mothers at embryonic Day 13.
In this study, zolmitriptan was dissolved in 10% (2-Hydroxypropyl)-o-cyclodextrin in saline and administered intraperitoneally (i.p.) 15 minutes before mice were placed in the test chamber. Behavioral recordings were measured using an automated video tracking system (Noldus EthoVision v14) and analyzed and graphed using GraphPad Prism software v8. Sociability was assessed during a 10 min period in the 3-chamber Social Interaction Assay. The time spent (sec) in the social interaction zone (SIZ) in front of the juvenile novel C57/BL6 vs empty interaction zone (EIZ) were used to calculate the sociability scores for individual mice. Sociability index was calculated using SIZ/EIZ ratio. Social interaction preference was calculated using (SIZ)/(SIZ+EIZ)*100. Simultaneous recording up to 4 arenas were conducted for the social interaction assay. Paired and unpaired T tests were used as statistical tests.

5-HT1b receptor [6] = molecular target: T2, 5-HT1b receptor; test: 5-HT1b receptor occupancy and efficacy model, human dose prediction; conditions: for Zolmitriptan human dose: predicted dose; for Zolmitriptan [CSF]: predicted effective human CSF range
Excerpt: Specifically, 5-HT1b receptor occupancy and efficacy models measured potency of zolmitriptan and NMDZ at the 5-HT1b receptor and the ratio of zolmitriptan: NDMZ in human CSF.
Using classical receptor theory, the receptor occupancy when considering two ligands (i.e., entities) can be predicted using the following relationship:
Total % occupancy=(% occupancy by A)+{[100%−(% occupancy by A)]×(% occupancy by B)} when considering a fixed concentration of both A and B.
The model was converted to predict the level of 5-HT1b activation (i.e., efficacy) by both zolmitriptan and NDMZ based on the concentration of zolmitriptan in the CSF by substituting Occupancy for Efficacy as predicted by the Clark equation {Efficacy=[L]/([L]+Ki); [L]=ligand concentration} for both zolmitriptan and NDMZ:
Total % Efficacy={[Zolmitriptan]/([Zolmitriptan]+Ki,Z)}+(100−{[Zolmitriptan]/([Zolmitriptan]+Ki,Z)}×{[NDMZ]/([NDMZ]+Ki,N)}

resident CD-1 mice = test: Resident-Intruder (RI) assay, CD-1 resident / C57BL/6 intruder; format: in vivo, mouse; conditions: CD-1 resident mice, cross-over, N=25, zolmitriptan 10 mg/kg, risperidone 0.03 mg/kg, mean; for Attack Time (s): 5 min period
Procedure: The resident mice were isolated for 1 week prior to testing aggressive behavior, while the intruders were group housed (4 per cage) throughout the study. All mice were given ad libitum food and water. Following the 1-week isolation period, aggressive behaviors were recorded using a front-facing camera daily (Monday-Friday) for up to 2 weeks to attain a stable baseline prior to evaluating drug effects. The interaction was scored using Borris open source event logging software to score the number of total initiated attacks by the resident and the cumulative duration of those attacks. Single fight bouts lasting longer than 60 seconds were stopped and the intruder was subsequently removed from the resident cage. […] Attack time was measured over a 5 min period as a cross over design.

[7] = Multiple ascending oral dose study in adult healthy volunteers (safety, tolerability, CSF PK); format: in vivo, human
Procedure: An investigation of the safety, tolerability and pharmacokinetic response of oral zolmitriptan following multiple ascending doses in adult healthy volunteer subjects was undertaken.
Zolmitriptan 2.5 mg per tablet or placebo tablet was administered 3 times per day (TID) for an up-titration period, treatment period of 7 days, and a down-titration period. The dose regimen is depicted in Table 1.
A lumbar puncture was completed on each subject to determine the concentration of zolmitriptan in the CSF. CSF samples were collected on day 5 of treatment for Cohort 1 and day 7 of treatment for Cohorts 2 and 3, and day 8 of treatment for cohort 4 and 5. The CSF collection was 2 hours after the morning dose (+/−30 minutes). CSF concentration was measured using a validated bioanalytical method.

resident BALB/c mice = test: Resident-Intruder (RI) assay, BALB/c resident / C57BL/6 intruder; format: in vivo, mouse
Excerpt: Correspondingly, the RI assay has been used preclinically to study the effect of drugs on rodent aggression (Miczek et al., 2001). The RI assay typically relies on the interpretation and scoring of offensive (resident animal) behavior patterns and may also include analysis of defensive (intruder animal) behavior patterns as well. […] The resident mice were isolated for 1 week prior to testing aggressive behavior, while the intruders were group housed (4 per cage) throughout the study. All mice were given ad libitum food and water. Following the 1-week isolation period, aggressive behaviors were recorded using a front-facing camera daily (Monday-Friday) for up to 2 weeks to attain a stable baseline prior to evaluating drug effects. The interaction was scored using Borris open source event logging software to score the number of total initiated attacks by the resident and the cumulative duration of those attacks. Single fight bouts lasting longer than 60 seconds were stopped and the intruder was subsequently removed from the resident cage. […] The resident mice were treated with vehicle for two consecutive days and then balanced for a two arm (3 and 10 mg/kg) cross over study. […] The consecutive fourth and fifth days were vehicle treatment followed by a final cross over treatment day on the sixth day.

[8] = CSF exposure in adult male CD-1 mice after i.p. dosing; conditions: male CD-1 mice dosed with zolmitriptan 3 and 10 mg/kg i.p.
[9] = male, c57/B16, mouse, CSF, ip, 10 mg/kg
[10] = BALB/c resident mice, 3 and 10 mg/kg i.p., 15 min pretreatment, 5 min interaction, cross-over vs vehicle

T3 sequence (P28564 whole entry): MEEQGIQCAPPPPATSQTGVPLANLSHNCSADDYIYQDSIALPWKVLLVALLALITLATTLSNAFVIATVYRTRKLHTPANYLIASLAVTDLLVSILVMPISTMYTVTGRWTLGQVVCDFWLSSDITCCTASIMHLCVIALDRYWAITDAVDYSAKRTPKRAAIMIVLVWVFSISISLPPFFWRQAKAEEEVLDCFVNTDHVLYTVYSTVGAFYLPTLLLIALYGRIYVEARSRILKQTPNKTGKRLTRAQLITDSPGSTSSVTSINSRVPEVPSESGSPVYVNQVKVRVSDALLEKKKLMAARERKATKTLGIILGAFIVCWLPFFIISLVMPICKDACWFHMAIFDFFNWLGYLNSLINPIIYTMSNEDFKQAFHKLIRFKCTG
T1 sequence (P28222 whole entry): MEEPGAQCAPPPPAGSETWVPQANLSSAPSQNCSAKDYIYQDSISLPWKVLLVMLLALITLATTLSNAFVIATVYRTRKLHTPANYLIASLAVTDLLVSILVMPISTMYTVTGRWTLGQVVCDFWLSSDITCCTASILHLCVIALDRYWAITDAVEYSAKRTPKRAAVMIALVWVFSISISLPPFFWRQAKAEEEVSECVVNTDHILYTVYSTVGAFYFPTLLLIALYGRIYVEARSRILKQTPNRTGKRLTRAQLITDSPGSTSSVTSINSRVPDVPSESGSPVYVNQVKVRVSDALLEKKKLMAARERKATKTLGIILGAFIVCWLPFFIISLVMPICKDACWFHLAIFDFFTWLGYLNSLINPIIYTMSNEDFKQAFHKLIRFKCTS
T2 sequence (P28222 whole entry): as above

SMILES: CN1CCC[C@@H]1Cc1c[nH]c2ccc(CCS(=O)(=O)c3ccccc3)cc12 [Eletriptan, eletriptan]
EC50 [1]: 8.8 nM | Ki (5-HT1b receptor [2]): 4.48 nM | c57/B16 mouse CSF Cmax (10 mg/Kg, i.p.) ([3]; 10 mg/Kg i.p.): 13.46 ng/mL | Kp [3, 9]: 0.0077 | EC50 [4]: 120 nM

SMILES: CN(C)CCc1c[nH]c2ccc(C[C@H]3COC(=O)N3)cc12 [Zolmitriptan, zolmitriptan]
Cmax (in vivo; 3 mg/kg): 5.4 ng/mL | Cmax (in vivo; 10 mg/kg): 34.4 ng/mL | CSF levels required for therapeutic effect, humans vs mice (fold lower) ([1]; extrapolated from species difference in EC50): about 8.3 fold | EC50 [1]: 4 nM | sociability index (SIZ/EIZ ratio) [5]: increased the sociability index | Ki (5-HT1b receptor [2]): 3.34 nM | c57/B16 mouse CSF Cmax (10 mg/Kg, i.p.) ([3]; 10 mg/Kg i.p.): 17.83 ng/mL | estimated effective CSF Cmax ([3]; c57/Bl6 ASD mouse model, 10 mg/Kg i.p.): 62 nM | Kp ([3]; male, c57/B16, mouse, CSF, intraperitoneal, 10 mg/kg): 0.0076 | Cmax [3, 9]: 17.8 ng/mL | Kp [3, 9]: 0.0076 | concentration for 50% Total Efficacy relative to zolmitriptan EC50 (5-HT1b receptor [6]; combined effect of metabolite): 3.7 fold | concentration of zolmitriptan in human CSF predicted to induce 50% efficacy (EC50) of 5-HT1b by zolmitriptan and NDMZ (5-HT1b receptor [6]; model prediction): 1.09 nM and 0.31 ng/ml | Zolmitriptan human dose (5-HT1b receptor [6]; Activity EC20-EC80): 1.25 to 35 mg | Zolmitriptan human dose (5-HT1b receptor [6]; Activity EC25-EC75): 1.7 to 30 mg | Zolmitriptan human dose (5-HT1b receptor [6]; Activity EC30-EC70): 2.25 to 20 mg | Zolmitriptan human dose (5-HT1b receptor [6]; Activity EC35-EC65): 3 to 15 mg | Zolmitriptan human dose (5-HT1b receptor [6]; Activity EC40-EC60): 5 to 12.5 mg | Zolmitriptan [CSF] (5-HT1b receptor [6]; Activity EC20-EC80): 0.078 to 1.24 ng/mL | Zolmitriptan [CSF] (5-HT1b receptor [6]; Activity EC25-EC75): 0.103 to 0.93 ng/mL | Zolmitriptan [CSF] (5-HT1b receptor [6]; Activity EC30-EC70): 0.135 to 0.713 ng/mL | Zolmitriptan [CSF] (5-HT1b receptor [6]; Activity EC35-EC65): 0.167 to 0.577 ng/mL | Zolmitriptan [CSF] (5-HT1b receptor [6]; Activity EC40-EC60): 0.207 to 0.465 ng/mL | activity in GTPgS at CSF Cmax ([4]; CD-1 mouse, 3 mg/Kg i.p., CSF Cmax 18.8 nM): 36% | activity in GTPgS at CSF Cmax ([4]; c57/Bl6 mouse, 10 mg/Kg i.p., CSF Cmax 62 nM): 65% | difference between species in EC50 (rat vs human 5-HT1b) ([4]; rat EC50 relative to human EC50): 8.3 fold | EC50 [4]: 33 nM | Attack Time (s) (resident CD-1 mice): 18.46*** s | Attack Time (s) (resident CD-1 mice; listed as zolmitriptan): greater reduction in attack time | Latency to Attack (resident CD-1 mice): 13.54 s | safety and tolerability ([7]; adult healthy volunteers, oral TID multiple ascending doses, all Cohorts): safe and well tolerated | Kp at 2 h ([7]; human, CSF, oral, read-out: CSF: plasma ratio for exposure): 0.03 | attack time (resident BALB/c mice; [10]): reduction | number of attacks (resident BALB/c mice; [10]): reduction in the number of attacks | attack behavior, dose dependence (resident BALB/c mice; BALB/c resident mice, 3 and 10 mg/kg i.p., p<0.05, paired t-test): significant dose dependent effect of reduction in attack behavior | normal locomotor activity (resident BALB/c mice; treated mice, 3 and 10 mg/kg): did not effect normal locomotor activity

SMILES: Cc1nc2n(c(=O)c1CCN1CCC(c3noc4cc(F)ccc34)CC1)CCCC2 [Risperidone]
Attack Time (s) (resident CD-1 mice): 21.58* s | Latency to Attack (resident CD-1 mice): 12.98 s

SMILES: CNCCc1c[nH]c2ccc(C[C@H]3COC(=O)N3)cc12 [NDMZ, N-desmethyl zolmitriptan]
Ki (5-HT1b receptor [2]): 1.18 nM | potency relative to zolmitriptan at human 5-HT1b (5-HT1b receptor [2]; from Ki values): 2.83 fold | metabolite NDMZ level in CSF ([3]; male c57/B16 mice dosed with zolmitriptan 10 mg/kg i.p.): below the lower limit of quantification | metabolite NDMZ level [8]: below the lower limit of quantification

Further lines, results first:

c57/B16 mouse CSF Cmax (10 mg/Kg, i.p.) ([3]; 10 mg/Kg i.p.): 12.52 ng/mL | Kp [3, 9]: 0.0015
SMILES: CN[C@@H]1CCc2[nH]c3ccc(C(N)=O)cc3c2C1 [Frovatriptan, frovatriptan]

EC50 [1]: 1.2 nM | Ki (5-HT1b receptor [2]): 0.95 nM | c57/B16 mouse CSF Cmax (10 mg/Kg, i.p.) ([3]; 10 mg/Kg i.p.): 79.56 ng/mL | Kp [3, 9]: 0.0312 | EC50 [4]: 7.4 nM
SMILES: CNS(=O)(=O)CCc1ccc2[nH]cc(C3CCN(C)CC3)c2c1 [Naratriptan, naratriptan]

c57/B16 mouse CSF Cmax (10 mg/Kg, i.p.) ([3]; 10 mg/Kg i.p.): 90.20 ng/mL | Kp [3, 9]: 0.0466 | EC50 [4]: 210 nM
SMILES: CN(C)CCc1c[nH]c2ccc(Cn3cncn3)cc12 [Rizatriptan, rizatriptan]
